Measured values published in US20130137573A1, “HERBICIDAL COMPOSITIONS COMPRISING, AND METHODS OF USE OF, HERBICIDALLY ACTIVE PYRANDIONES” (priority 2009, published 2013).

Experiments:
Type in all cases: in vivo
IR-64 rice [1] = experiment: Biological Example 4 (Test 110): wet seeded rice (WSR) method, IR-64 rice damage; settings: for WSR Rice IR-64 % herbicidal damage: EC050 + 0.2% Adsee, foliar spray, 14 days after application
Description: (§1) Rice seeds varieties IR-64 and Arborio, Echinochloa crus-galli (ECHCG), and Leptochloa chinensis (LEFCH) were sown in seed trays containing a standard sandy loam soil saturated with water replicating swampy conditions. They were sown at intervals to achieve plants at the following growth stages at time of application: IR-64 and Arborio rice: from 3 leaves on the main stem to tillering; ECHCG: at two different leaf stages: 0-0.5 leaf and 2-3 leaf; LEFCH: 3 leaf. Glasshouse bay conditions were 30/20° C. day/night; 18/6 hours light/dark; 75% humidity.
(§2) The test solutions were prepared by mixing the appropriate aliquots of the test substance (here, compound A-13 as EC050 Formulation Example 1) and adjuvant (0.2% Adsee as adjuvant) in de-ionised water to give the desired treatment concentration.
(§3) Application was as a foliar spray, made using a tracksprayer. 3 days after application the trays were flooded to 2-3 cm water depth, and maintained at this level for the duration of the test.
(§4) No. of repetitions: 1 test only.
(§5) A visual assessment of the % herbicidal damage was made 14 days after application (0=no damage to plants, 100=total kill).

IR-64 rice [2] = experiment: Biological Example 1 (Test 125): damage (phytotoxicity) to flooded transplanted rice; settings: alone or in tested mixtures; A-4 mixtures especially at higher application rates of compound A-4
Description: Rice seeds, variety IR-64 (an indica type of rice), were sown in seed trays. After 7 days the resulting plants were transplanted as 3 groups of 2 plants, into pots containing a standard sandy loam soil saturated with water replicating swampy conditions. […] Leptochloa chinensis (LEFCH) and Echinochloa crus-galli (ECHCG) were sown as 2 separate groups of approx 10-20 seeds into pots 13 days prior to application of the test substances, in the same glasshouse conditions as the rice. Therefore, each pot of weeds contained a group of LEFCH and a separate group of ECHCG. All pots of rice and all pots of weeds were flooded to 2-3 cm water depth the day prior to application of the test substances. Growth stages at time of application were as follows: Rice: from 2 leaves on the main stem up to tillering; ECHCG: from 2 leaves on the main stem up to tillering; LEFCH: 2-3 leaves.
Most of the test substances were used as formulated products. […] Imazosulfuron (a comparator co-herbicide) was applied as a GR0.25 formulation (GR=granule).
Application of the test substances was made by pipetting the required amount of the test solution or the test formulation gently into the flood water of the appropriate pot.
The test plants were then grown on in the same glasshouse conditions, and watered twice daily keeping the flood water at a depth of 2-3 cm. […]

[3] = system: Echinochloa colona (ECHCO); experiment: Biological Example 4 (Test 110): dry seeded rice (DSR) method, ECHCO damage; settings: for DSR ECHCO 0.5lf % herbicidal damage / DSR ECHCO 3lf % herbicidal damage: EC050 + 0.2% Adsee, foliar spray, 14 days after application; for DSR ECHCO 0.5lf % herbicidal damage: 0.5 leaf stage; for DSR ECHCO 3lf % herbicidal damage: 3 leaf stage
Experimental: Echinochloa colona (ECHCO) seeds were sown in seed trays containing a standard sandy loam soil. They were sown at intervals to achieve plants at 0-0.5 leaf and 2-3 leaves at the time of application. Irrigation occurred to maintain the soil at moist but not saturated conditions. Glasshouse bay conditions were 30/20° C. day/night; 18/6 hours light/dark; 75% humidity.
as §2
Application was as a foliar spray, made using a tracksprayer.
The test plants were grown on in the same glasshouse conditions, and watered to maintain moist conditions.
as §4, §5

IR-64 rice [4] = experiment: Biological Example 2 (Test 109): damage to flooded transplanted rice; settings: for IR-64 rice % herbicidal damage: EC050, into flood water, 14 days after application
Experimental: (§6) Rice seeds, variety IR-64, were sown in seed trays, after 7 days they were transplanted as 3 groups of 2 plants, into pots containing a standard sandy loam soil saturated with water replicating swampy conditions. These were grown on for 9 days in a glasshouse bay (30/20° C. day/night; 18/6 hours light/dark; 75% humidity). Approx 10-20 seeds of Echinochloa crus-galli were sown into pots 13 days prior to application, in the same conditions as the rice. All pots were flooded to 2-3 cm water depth the day prior to application. Growth stages at time of application were: Rice: 2-3 leaves, ECHCG: 2-3 leaves.
(§7) The test solutions were prepared by mixing the appropriate aliquots of the test substance (here, compound A-13 as the EC050 Formulation Example 1 disclosed herein) in de-ionised water to give the desired treatment concentration.
(§8) Application was made by pipetting the required amount of the test solution gently into the flood water of the appropriate pot.
(§9) The test plants were grown on in the same glasshouse conditions, and watered twice daily keeping the flood water at a depth of 2-3 cm.
as §5

[5] = system: Echinochloa crus-galli (ECHCG); experiment: Biological Example 2 (Test 109): visual herbicidal damage to flooded ECHCG; settings: EC050, into flood water, 14 days after application
Experimental: as §6, §7, §8, §9, §5

Arborio rice = experiment: Biological Example 4 (Test 110): wet seeded rice (WSR) method, Arborio rice damage; settings: EC050 + 0.2% Adsee, foliar spray, 14 days after application
Description: as §1, §2, §3, §4, §5

Koshihikari rice = experiment: Biological Example 4 (Test 110): transplanted (TPR) method, rice damage; settings: for Transplanted Rice Koshihikari % herbicidal damage: 14 days after application
Experimental: as §6, with “variety Koshihikari,” for “variety IR-64,”, “bay 30/20°” for “bay (30/20°”, “ECHCG: 4” for “ECHCG: 2-3”, “leaves. The test solutions were prepared by mixing the appropriate aliquots of the test substance (here, compound A-13 as EC050 Formulation Example 1) in de-ionised water to give the desired treatment concentration.” for “leaves.”
as §8, §9, §4, §5

[6] = system: Leptochloa chinensis (LEFCH); experiment: Biological Example 4 (Test 110): wet seeded rice (WSR) method, LEFCH damage; settings: EC050 + 0.2% Adsee, foliar spray, LEFCH 3 leaf, 14 days after application
Description: as §1, §2, §3, §4, §5

[7] = system: Echinochloa crus-galli (ECHCG); experiment: Biological Example 3 (Test 120): visual herbicidal damage to flooded ECHCG; settings: EC050, 14DAA
Experimental: as §6, with “Koshihikari,” for “IR-64,”, “clay” for “sandy loam”, “leaves;” for “leaves,”
as §7, §8, §9, §5

Q: For `CC1(C)OC(C)(C)C(O)=C(c2cc(-c3ccc(Cl)cc3F)ccc2C2CC2)C1=O` [compound A-13, 4-(4′-Chloro-4-cyclopropyl-2′-fluorobiphenyl-3-yl)-2,2,6,6-tetramethylpyran-3,5-dione], which “WSR Rice IR-64 % herbicidal damage” value (IR-64 rice [1]; 8 g/ha) is on record?
A: The value was 0%.

Q: What about the “WSR Rice IR-64 % herbicidal damage” value (IR-64 rice [1]; 60 g/ha) of the same compound?
A: The value was 0%.

Q: And the “WSR Rice IR-64 % herbicidal damage” value (IR-64 rice [1]; 125 g/ha)?
A: The value was 5%.

Q: What about the “WSR Rice IR-64 % herbicidal damage” value (IR-64 rice [1]; 500 g/ha) of the same compound?
A: Its value is 35%.

Q: And the “selectivity margin between rice and ECHCG” value (IR-64 rice [1]; Biological Example 4, wet seeded rice, 60 and 125 g/ha)?
A: Its value is “good selectivity margin”.

Q: And the “phytotoxicity (damage) to IR-64 transplanted flooded rice, in words” value (IR-64 rice [2])?
A: The value was “very low phytotoxicity”.

Q: What about the “DSR ECHCO 0.5lf % herbicidal damage” value ([3]; 8 g/ha) of the same compound?
A: Its value is 0%.

Q: What about the “DSR ECHCO 3lf % herbicidal damage” value ([3]; 8 g/ha) of the same compound?
A: Its value is 85%.

Q: What about the “DSR weed control, in words” value ([3]; 60 and 125 g/ha, 2 growth stages, 0.5 leaf and 3 leaf, dry seeded rice method) of the same compound?
A: Its value is “controlled”.

Q: And the “DSR ECHCO 0.5lf % herbicidal damage” value ([3]; 60 g/ha)?
A: The value was 90%.

Q: And the “DSR ECHCO 3lf % herbicidal damage” value ([3]; 60 g/ha)?
A: The value was 100%.

Q: And the “DSR ECHCO 0.5lf % herbicidal damage” value ([3]; 125 g/ha)?
A: Its value is 90%.

Q: And the “DSR ECHCO 3lf % herbicidal damage” value ([3]; 125 g/ha)?
A: The value was 100%.

Q: What about the “DSR ECHCO 0.5lf % herbicidal damage” value ([3]; 500 g/ha) of the same compound?
A: Its value is 90%.

Q: And the “DSR ECHCO 3lf % herbicidal damage” value ([3]; 500 g/ha)?
A: The value was 100%.

Q: And the “IR-64 rice % herbicidal damage” value (IR-64 rice [4]; 120 g/ha)?
A: The value was 5%.

Q: What about the “IR-64 rice % herbicidal damage” value (IR-64 rice [4]; 240 g/ha) of the same compound?
A: The value was 18%.

Q: What about the “IR-64 rice % herbicidal damage” value (IR-64 rice [4]; 360 g/ha) of the same compound?
A: The value was 5%.

Q: And the “selectivity margin in rice (IR-64 rice vs ECHCG)” value (IR-64 rice [4]; Biological Example 2, 120 g/ha)?
A: The value was “good selectivity margin”.

Q: What about the “ECHCG % herbicidal damage” value ([5]; 60 g/ha) of the same compound?
A: The value was 68%.

Q: What about the “ECHCG % herbicidal damage” value ([5]; 120 g/ha) of the same compound?
A: The value was 90%.

Q: And the “ECHCG % herbicidal damage” value ([5]; 240 g/ha)?
A: The value was 98%.

Q: What about the “WSR Rice Arborio % herbicidal damage” value (Arborio rice; 8 g/ha) of the same compound?
A: Its value is 0%.

Q: What about the “WSR Rice Arborio % herbicidal damage” value (Arborio rice; 60 g/ha) of the same compound?
A: The value was 0%.

Q: And the “WSR Rice Arborio % herbicidal damage” value (Arborio rice; 125 g/ha)?
A: Its value is 0%.

Q: And the “WSR Rice Arborio % herbicidal damage” value (Arborio rice; 500 g/ha)?
A: The value was 60%.

Q: And the “Transplanted Rice Koshihikari % herbicidal damage” value (Koshihikari rice; 60 g/ha, EC050, into flood water)?
A: Its value is 15%.

Q: And the “Transplanted Rice Koshihikari % herbicidal damage” value (Koshihikari rice; 125 g/ha, EC050 into flood water)?
A: The value was 20%.

Q: What about the “Transplanted Rice Koshihikari % herbicidal damage” value (Koshihikari rice; 500 g/ha, EC050 into flood water) of the same compound?
A: Its value is 60%.

Q: What about the “selectivity margin between rice and ECHCG” value (Koshihikari rice; Biological Example 4, transplanted rice, 125 g/ha) of the same compound?
A: The value was “certain selectivity margin”.

Q: And the “WSR LEFCH % herbicidal damage” value ([6]; 8 g/ha)?
A: Its value is 10%.

Q: And the “WSR LEFCH % herbicidal damage” value ([6]; 60 g/ha)?
A: The value was 10%.

Q: What about the “WSR LEFCH % herbicidal damage” value ([6]; 125 g/ha) of the same compound?
A: The value was 65%.

Q: And the “WSR LEFCH % herbicidal damage” value ([6]; 500 g/ha)?
A: The value was 75%.

Q: And the “ECHCG % herbicidal damage, Mean of 2 repetitions” value (from here on “ECHCG % herbicidal damage, Mean”) ([7]; 30 g/ha)?
A: Its value is 58%.

Q: What about the “ECHCG % herbicidal damage, Repetition A” value ([7]; 30 g/ha) of the same compound?
A: Its value is 55%.

Q: What about the “ECHCG % herbicidal damage, Repetition B” value ([7]; 30 g/ha) of the same compound?
A: Its value is 60%.

Q: What about the “ECHCG % herbicidal damage, Mean” value ([7]; 60 g/ha) of the same compound?
A: Its value is 63%.

Q: What about the “ECHCG % herbicidal damage, Repetition A” value ([7]; 60 g/ha) of the same compound?
A: The value was 65%.

Q: And the “ECHCG % herbicidal damage, Repetition B” value ([7]; 60 g/ha)?
A: The value was 60%.

Q: And the “ECHCG % herbicidal damage, Mean” value ([7]; 125 g/ha)?
A: The value was 88%.

Q: And the “ECHCG % herbicidal damage, Repetition A” value ([7]; 125 g/ha)?
A: The value was 85%.

Q: What about the “ECHCG % herbicidal damage, Repetition B” value ([7]; 125 g/ha) of the same compound?
A: The value was 90%.

Q: And the “ECHCG control (span of the 2 repetitions)” value ([7]; 125 g/ha)?
A: The value was 85-90%.
